Assay results from patent publication US9226934B2, “Anti-cancer drug” (THE UNIVERSITY OF TOKYO, priority 2008, dated 2016).

B1: MFG-E8: MFG-E8 recombinant protein (product of R&D Systems in Example 11) (protein, UniProt Q08431 24-387, looked up)
Lactadherin: LDICSKNPCHNGGLCEEISQEVRGDVFPSYTCTCLKGYAGNHCETKCVEPLGLENGNIANSQIAASSVRVTFLGLQHWVPELARLNRAGMVNAWTPSSNDDNPWIQVNLLRRMWVTGVVTQGASRLASHEYLKAFKVAYSLNGHEFDFIHDVNKKHKEFVGNWNKNAVHVNLFETPVEAQYVRLYPTSCHTACTLRFELLGCELNGCANPLGLKNNSIPDKQITASSSYKTWGLHLFSWNPSYARLDKQGNFNAWVAGSYGNDQWLQVDLGSSKEVTGIITQGARNFGSVQFVASYKVAYSNDSANWTEYQDPRTGSSKIFPGNWDNHSHKKNLFETPILARYVRILPVAWHNRIALRLELLGC

Experiments:
[1] = test system: MC 38, mouse colon carcinoma cells; assay: Subcutaneous tumor model of MC38 colon carcinoma cells in C57Bl/6 mice, tumor growth; assay type: in vivo; settings: agent alone i.p. on day 10, 13, 16; compared with non-treated group; afterwards growth as in non-treated group
Protocol: (§1) The MC 38, mouse colon carcinoma cells or B16, melanoma cells were subcutaneously injected to the back of 6-week-old C57BI/6 mice (1×10^5 cells/mouse). After the tumor diameter (longer diameter) reached 5 mm (25 to 30 mm^2) (day 10), an anti-cancer agent and/or an anti-MFG-E8 antibody were/was intraperitoneally administered to each mouse on day 10, day 13, and day 16 according to any of the following protocols. The experiments according to each protocol were performed twice. The employed anti-MFG-E8 antibody was a blocking antibody commercially available from MBL. In protocols 1 to 4, MC38 was used, and B16 melanoma was used in protocol 5.
• Gemcitabine (GEM): 4 mg/kg • Gemcitabine (GEM): 1 mg/kg • Anti-MFG-E8 antibody: 1 mg/kg • Gemcitabine (GEM): 4 mg/kg+anti-MFG-E8 antibody: 1 mg/kg • Gemcitabine (GEM): 1 mg/kg+anti-MFG-E8 antibody: 1 mg/kg Protocol 2: • CPT-11: 1 mg/kg • 5-FU: 0.1 M • Anti-MFG-E8 antibody: 1 mg/kg • CPT-11: 1 mg/kg+anti-MFG-E8 antibody: 1 mg/kg • 5-FU: 0.1 M+anti-MFG-E8 antibody: 1 mg/kg Protocol 3: • Epidermal growth factor receptor tyrosine kinase 1 (EGFR-TK1): […] • Anti-vascular endothelial growth factor receptor-2 monoclonal antibody (α-VEGFR-2Ab): 40 mg/kg • Anti-MFG-E8 antibody: 1 mg/kg Protocol 4: • Irradiation (XRT): 3 Gy/day×5 • Anti-MFG-E8 antibody: 1 mg/kg Protocol 5: • Doxorubicin (Dox): 5 mg/kg • Etoposide (Etop): 2 mg/kg • Anti-MFG-E8 antibody: 1 mg/kg (Results)

B16, melanoma cells = assay: Subcutaneous tumor model of B16 melanoma cells in C57Bl/6 mice, tumor growth; assay type: in vivo, mouse; settings: agent alone i.p. on day 10, 13, 16; compared with non-treated group; afterwards growth as in non-treated group
Protocol: as §1, with “5. […]” for “5.”

dendritic cells = assay: OVA-specific T cell activity in mixed culture with treated dendritic cells, intracellular IFN-γ and IL-10; assay type: cell-based, mouse; settings: dendritic cells treated with MFG-E8 recombinant protein 100 μg/mL or anti-MFG-E8 antibody 20 μg/mL; 72 h; compared to control
From the text: The mechanisms of activation of dendritic cells and T cells through employment of the anti-MFG-E8 antibody and the anti-cancer agent, such activation having been observed in vivo, were further investigated in vitro by using a mixed culture system.
Specifically, ovalbumin (OVA) was employed as a model antigen. In a specific procedure, bone marrow cells were collected from DO11.10 (MHC class II-restricting OVA antigen transgenic mice), and differentiation to dendritic cells was induced with granulocyte-monocyte colony-stimulating factor (GM-CSF). Seven days after the initiation of the differentiation induction, the cells were treated with MFG-E8 recombinant protein (100 μg/mL) or anti-MFG-E8 antibody (20 μg/mL). Thereafter, on day 8, the thus-treated cells were pulsed with MHC class II OVA-restricting OVA peptide ([…]) or a negative control peptide (HSA) for six hours. The resultant cells were admixed with naive CD4+ positive T cells derived from syngeneic (Balb/c) mice in such an amount that the ratio of dendritic cells to CD4+ T cells was adjusted to 1:10, and the cell mixture was cultured in the presence of an anti-CD3 antibody (0.1 μg/mL). Seventy-two hours after, the activity of T cells was determined through flow cytometry, in terms of intracellular expression of IFN-γ and IL-10.

Dendritic cells (BMDCs) = assay: Cytokine concentrations of BMDC culture supernatant, ELISA; assay type: cell-based, mouse; settings: recombinant MFG-E8 100 ng/mL or anti-MFG-E8 monoclonal antibody 20 μg/mL overnight
Protocol: Dendritic cells (BMDCs) were prepared through culturing myeloid progenitor cells for seven days in a GM-CSF containing medium, and treated overnight with recombinant MFG-E8 (100 ng/mL, product of R&D Systems), an anti-MFG-E8 monoclonal antibody (20 μg/mL, MBL), or a polyclonal MFG-E8 anti-serum (20 μg/mL). The IL-12, IL-23, TNF-α, and IL-10 concentrations of the culture supernatant were determined with ELISA. On day 7, BMDCs were co-cultured with PKH26 (Sigma-Aldrich)-labeled EG.7-OVA cells using a 12-well plate (ratio: 1:10), and phagocytosis was determined with flow cytometry. A similar experiment was performed using tumor cells treated for 30 minutes with an anti-MFG-E8 monoclonal antibody ([…]) before the co-culture. The effect of αvβ3 integrin-blocking antibody (RMV-7, product of Millipore) or Fc-receptor-blocking antibody (product of BD Bioscience) was also evaluated on the intake of tumor cells. Cross-presentation was tested using the following procedure. Specifically, naive CD4^+ T cells were isolated from the spleen of C57BL/6-Tg (ACTB-OVA) 916Jen/J mice using magnetic cell sorting (product of Miltenyi Biotech). The thus-isolated cells were added to the dendritic cells to which tumor cells had been loaded for 24 hours. Expression of IFN-γ within the cells was measured with flow cytometry.

Molecule | tumor growth, anti-cancer agent alone [1] | tumor growth, anti-cancer agent alone (B16, melanoma cells) | further results
O=c1[nH]cc(F)c(=O)[nH]1 [5FU, 5-FU] | tumor growth was significantly suppressed for 5 to 10 days after administration | – | –
CCc1c2c(nc3ccc(OC(=O)N4CCC(N5CCCCC5)CC4)cc13)-c1cc3c(c(=O)n1C2)COC(=O)[C@]3(O)CC [CPT-11] | tumor growth was significantly suppressed for 5 to 10 days after administration | – | –
Nc1ccn([C@@H]2O[C@H](CO)[C@@H](O)C2(F)F)c(=O)n1 [GEM, gemcitabine] | tumor growth was significantly suppressed for 5 to 10 days after administration | – | –
COc1cccc2c1C(=O)c1c(O)c3c(c(O)c1C2=O)C[C@@](O)(C(=O)CO)C[C@@H]3O[C@H]1C[C@H](N)[C@H](O)[C@H](C)O1 [doxorubicin] | – | tumor growth was significantly suppressed for 5 to 10 days after administration | –
COc1cc([C@@H]2c3cc4c(cc3[C@@H](O[C@@H]3O[C@@H]5CO[C@@H](C)O[C@H]5[C@H](O)[C@H]3O)[C@H]3COC(=O)[C@H]23)OCO4)cc(OC)c1O [etoposide] | – | tumor growth was significantly suppressed for 5 to 10 days after administration | –
B1 | – | – | IL-10 production (dendritic cells): potentiation; OVA-specific IFN-γ production (dendritic cells): suppression; IL-10 production by dendritic cells (Dendritic cells (BMDCs)): enhanced secretion of IL-10
